Target: T1, human NK1 receptors (Homo sapiens, UniProt P25103)
T1 construct: expressed in transfected cells; host or cells: CHO cells (Semliki virus expression system), membrane suspension
Test: NK1 receptor binding assay, displacement of [3H]substance P
Conditions: human NK1 receptors in CHO cells (Semliki virus expression system), [3H]substance P 0.6 nM, 60 min at room temperature; for Ki: read-out: affinity to the NK-1 receptor, given as pKi (converted)
Method: The affinity of test compounds for the NK1 receptor was evaluated at human NK1 receptors in CHO cells infected with the human NK1 receptor (using the Semliki virus expression system) and radiolabelled with [^3 H]substance P (final concentration 0.6 nM). Binding assays were performed in HEPES buffer (50 mM, pH 7.4) containing BSA (0.04 %) leupeptin (8 μg/ml), MnCl2 (3 mM) and phosphoramidon (2 μM). Binding assays consisted of 250 μl of membrane suspension (1.25×10^5 cells/assay tube), […] of buffer of displacing agent and 125 μl of [^3 H]substance P. Displacement curves were determined with at least seven concentrations of the compound. The assay tubes were incubated for 60 min at room temperature after which time the tube contents were rapidly filtered under vacuum through GF/C filters presoaked for 60 min with PEI (0.3%) with 2×2 ml washed of HEPES buffer (50 mM, pH 7.4). The radioactivity retained on the filters was measured by scintillation counting. All assays were performed in triplicate in at least 2 separate experiments.

T1 sequence (P25103 whole entry): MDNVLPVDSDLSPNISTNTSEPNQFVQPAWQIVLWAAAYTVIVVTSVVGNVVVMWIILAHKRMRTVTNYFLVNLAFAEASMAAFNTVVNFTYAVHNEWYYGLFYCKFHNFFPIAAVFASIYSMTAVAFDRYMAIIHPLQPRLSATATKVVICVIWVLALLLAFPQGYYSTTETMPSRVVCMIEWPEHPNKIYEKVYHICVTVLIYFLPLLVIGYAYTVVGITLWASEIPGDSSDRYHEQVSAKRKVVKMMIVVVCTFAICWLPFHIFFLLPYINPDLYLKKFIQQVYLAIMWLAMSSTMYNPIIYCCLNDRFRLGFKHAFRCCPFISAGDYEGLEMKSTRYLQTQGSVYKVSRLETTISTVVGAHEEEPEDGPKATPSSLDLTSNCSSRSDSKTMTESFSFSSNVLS

| Compound | affinity to the NK-1 receptor, given as pKi | Ki [nM] |
| --- | --- | --- |
| 4-(2-Chloro-phenyl)-2-(3-dimethylamino-ethoxy)-pyrimidine-5-carboxylic acid(3,5-bis-trifluoromethyl-benzyl)-methyl-amide | 8.11 | – |
| CN(C)CCOc1ncc(C(=O)N(C)Cc2cc(C(F)(F)F)cc(C(F)(F)F)c2)c(-c2ccccc2Cl)n1 [Example 52, 4-(2-Chloro-phenyl)-2-(2-dimethylamino-ethoxy)-pyrimidine-5-carboxylic Acid (3,5-bis-trifluoromethyl-benzyl)-methyl-amide] | – | 3.55 |
| CN(C)CCCOc1ncc(C(=O)N(C)Cc2cc(C(F)(F)F)cc(C(F)(F)F)c2)c(-c2ccccc2Cl)n1 [Example 53, 4-(2-Chloro-phenyl)-2-(3-dimethylamino-propoxy)-pyrimidine-5-carboxylic Acid (3,5-bis-trifluoromethyl-benzyl)-methyl-amide] | – | 1.74 |

Next, values leading:

| affinity to the NK-1 receptor, given as pKi | Ki [nM] | Compound |
| --- | --- | --- |
| – | 0.724 | Cc1cc(F)ccc1-c1nc(N2CCNCC2)ncc1C(=O)N(C)Cc1cc(C(F)(F)F)cc(C(F)(F)F)c1 [Example 84, 4-(4-Fluor-2-methyl-phenyl)-2-piperazin-1-yl-pyrimidine-5-carboxylic Acid (3,5-bis-trifluoromethyl-benzyl)-methyl-amide] |
| – | 2.88 | CN1CCN(c2ncc(C(=O)N(C)Cc3cc(C(F)(F)F)cc(C(F)(F)F)c3)c(-c3cccc4ccccc34)n2)CC1 [Example 88, 2-(4-Methyl-piperazin-1-yl)-4-naphthalen-1-yl-pyrimidine-5-carboxylic Acid (3,5-bis-trifluoromethyl-benzyl)-methyl-amide] |

Reference: patent US6274588A, “4-phenyl-pyrimidine derivatives” (Hoffmann-La Roche Inc., priority 1999, dated 2001)
